The results in this text go back to ChEMBL document CHEMBL1201862, “PubChem BioAssay data set” (2004).

Among the test systems are EKVX; CAKI-1; Malme-3M; SF-295; HT-29; UACC-257; HL-60; A498; NCI-H226; SN12C; A549; RPMI-8226; DLD-1; MOLT-4; LOX IMVI; SK-MEL-2; T47D; BT-549; MDA-MB-231; NCI/ADR-RES.
Common to all, as to assay: NCI tumour cell line growth inhibition, 48 h

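Cells were grown in 96-well plates and exposed to each compound for 48 hours at five concentrations; endpoints were interpolated linearly between bracketing concentrations, or set to the highest concentration if not reached. GI50 marks 50% less growth.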 Active and inactive are the calls of the source. Rule as the data show it: active = GI50 up to about 1.1 µM and inactive = higher. Bounds are passed on as bounds.

Take `COc1ccccc1NC(=O)C1=C(C)NC(C)=C(C(=O)Nc2ccccc2OC)C1C1=CC=COC1`: the GI50 with EKVX is 10.8 µM (inactive); in the assay on CAKI-1, 4.65 µM (inactive); with Malme-3M, 5.68 µM (inactive); in the assay with SF-295, 6.73 µM (inactive); in the assay on HT-29, 4.46 µM (inactive); with UACC-257, 13.6 µM (inactive). For the same molecule, the GI50 was 3.94 µM (inactive) with HL-60; 6.17 µM (inactive) in the assay on A498; > 100 µM (inactive) in the assay on NCI-H226; 60.7 µM (inactive) in the assay on SN12C; 18.5 µM (inactive) in the assay on A549; 13.2 µM (inactive) with RPMI-8226. Moreover, the GI50 with DLD-1 is 11.5 µM (inactive); in the assay with MOLT-4, 13.3 µM (inactive).
In the case of `O=C1c2ccccc2C2(O)N(c3ccccc3)C(=S)N(c3ccccc3)C12O` (stereo not given), the GI50 in the assay with EKVX, in the assay with CAKI-1, in the assay with Malme-3M, in the assay with SF-295, with HT-29 and with UACC-257 was > 100 µM (inactive) each time. Also, the GI50 in the assay with LOX IMVI, with SK-MEL-2, with A498, in the assay with NCI-H226, with SN12C and in the assay with A549 was > 100 µM (inactive) throughout. Further, the GI50 with RPMI-8226, in the assay with DLD-1 and in the assay on MOLT-4 was > 100 µM (inactive) in each case.
Regarding `COc1ccc(NC(=O)CC/C(CC(=O)C(C)(C)C)=N\NC(=O)C(N)=O)cc1`, the GI50 in the assay on EKVX, in the assay on CAKI-1, in the assay on Malme-3M, in the assay with SF-295, in the assay with HT-29 and in the assay with UACC-257 was > 100 µM (inactive) each time. The GI50 with LOX IMVI, in the assay on HL-60, in the assay on SK-MEL-2, in the assay on NCI-H226, with SN12C and in the assay on A549 was > 100 µM (inactive) throughout. Further, the GI50 in the assay on DLD-1 and with MOLT-4 was > 100 µM (inactive) in each case.
In the case of `Cc1ccc(S(=O)(=O)N/N=C(/CC(=O)c2c(C)[n+]([O-])c3ccccc3[n+]2[O-])C(=O)Nc2ccc(C)c(C)c2)cc1`, the GI50 in the assay with EKVX was > 100 µM (inactive); in the assay on CAKI-1 it was > 100 µM (inactive); with Malme-3M it was > 100 µM (inactive); in the assay on SF-295, > 100 µM (inactive); in the assay on HT-29, 50.9 µM (inactive); with UACC-257, 87.1 µM (inactive). Moreover, the GI50 in the assay on SK-MEL-2 was > 100 µM (inactive); with A498, > 100 µM (inactive); with NCI-H226 it was > 100 µM (inactive); in the assay with SN12C it was 34 µM (inactive); in the assay on A549 it was > 100 µM (inactive); in the assay with RPMI-8226 it was 29.6 µM (inactive). Besides, in the assay with DLD-1, the GI50 was > 100 µM (inactive).
`N#C/C(=C/c1ccc2c(c1)OCO2)C(=O)c1ccccc1`: the GI50 with EKVX, in the assay with CAKI-1, in the assay on Malme-3M, in the assay with SF-295, with HT-29 and in the assay on UACC-257 was > 100 µM (inactive) each time. Moreover, the GI50 in the assay on SK-MEL-2, in the assay on A498, in the assay on SN12C, in the assay on A549, in the assay on RPMI-8226 and with DLD-1 was > 100 µM (inactive) throughout. The GI50 in the assay on MOLT-4 is > 100 µM (inactive).
As for `O=c1oc2c3ccc4ccccc4c3n(CCCN3CCCCC3)c2c2ccccc12`, the GI50 in the assay on EKVX is > 100 µM (inactive); in the assay on CAKI-1, > 100 µM (inactive); in the assay with Malme-3M, 20.7 µM (inactive); in the assay on SF-295, 46.9 µM (inactive); in the assay with HT-29 it was 8.39 µM (inactive); in the assay with UACC-257, 33.6 µM (inactive). Also, the GI50 with LOX IMVI was > 100 µM (inactive); in the assay on HL-60, 17.2 µM (inactive); in the assay on SK-MEL-2, > 100 µM (inactive); in the assay with A549, 34 µM (inactive); in the assay on RPMI-8226, 32.1 µM (inactive); in the assay on DLD-1 it was 25.2 µM (inactive). The GI50 with MOLT-4 was 3.24 µM (inactive).
In the case of `Cc1ccccc1/C=C/C(=O)c1ccccc1`, the GI50 with EKVX was 17.5 µM (inactive); in the assay with CAKI-1, 19.4 µM (inactive); with Malme-3M, 18.1 µM (inactive); in the assay on HT-29 it was 20.1 µM (inactive); with UACC-257, 22.5 µM (inactive); in the assay with SK-MEL-2, > 10 µM (inactive). The GI50 is 16.4 µM (inactive) in the assay with A498; 20.5 µM (inactive) with NCI-H226; > 10 µM (inactive) in the assay on SN12C; 22.5 µM (inactive) in the assay with A549; 24.9 µM (inactive) in the assay on RPMI-8226; 22.4 µM (inactive) with DLD-1. Besides, in the assay with MOLT-4, the GI50 was 18.7 µM (inactive).
On to `CCN(CC)CCCNC(=O)c1ccc([N+](=O)[O-])cc1O`, for which the GI50 with EKVX, in the assay with CAKI-1, with Malme-3M, with SF-295, in the assay on HT-29 and with UACC-257 was > 100 µM (inactive) each time. Moreover, the GI50 in the assay on LOX IMVI, in the assay with HL-60, in the assay with SK-MEL-2, with A498, in the assay with NCI-H226 and in the assay with SN12C was > 100 µM (inactive) throughout. The GI50 in the assay with A549, in the assay on DLD-1 and in the assay on MOLT-4 was > 100 µM (inactive) throughout.
Regarding `COC(=O)C1CCCC2(C1)OCCO2` (stereo not given), the GI50 in the assay on EKVX, with CAKI-1, with Malme-3M, in the assay with SF-295, in the assay with HT-29 and with UACC-257 was > 100 µM (inactive) throughout. In addition, the GI50 with LOX IMVI, with SK-MEL-2, with A498, in the assay with NCI-H226, in the assay on SN12C and in the assay with A549 was > 100 µM (inactive) in each case. Moreover, the GI50 in the assay with RPMI-8226, with DLD-1 and with MOLT-4 was > 100 µM (inactive) throughout.
As for `O=C1COc2ccc([N+](=O)[O-])cc2C(=O)C1`, the GI50 in the assay on EKVX, with CAKI-1, with Malme-3M, with SF-295, in the assay on HT-29 and with UACC-257 was > 10 µM (inactive) in each case. Also, the GI50 in the assay on LOX IMVI, in the assay with HL-60, with SK-MEL-2, in the assay on A498, in the assay on NCI-H226 and in the assay with SN12C was > 10 µM (inactive) throughout. Moreover, the GI50 with A549, with RPMI-8226, in the assay on T47D, in the assay on BT-549, with MDA-MB-231 and in the assay with NCI/ADR-RES was > 10 µM (inactive) throughout. The GI50 in the assay on MOLT-4 is > 10 µM (inactive).
Take `CC(C)(C)C1=Nc2c(Br)cc(C(C)(C)C)cc2C(C(F)(F)F)(C(F)(F)F)O1`: the GI50 is > 100 µM (inactive) with EKVX; > 100 µM (inactive) with Malme-3M; 54.8 µM (inactive) in the assay with SF-295; 57.9 µM (inactive) in the assay with HT-29; 48 µM (inactive) in the assay with UACC-257; 16.2 µM (inactive) in the assay with LOX IMVI. In addition, the GI50 in the assay with HL-60 is 22.2 µM (inactive); in the assay with SK-MEL-2, > 100 µM (inactive); with SN12C, 38.4 µM (inactive); with A549 it was 43.4 µM (inactive); with RPMI-8226, 25.3 µM (inactive); with DLD-1 it was > 100 µM (inactive). For the same molecule, the GI50 with MOLT-4 is 45.8 µM (inactive).
With `CS(=O)(=O)Nc1ccc(NCc2c[nH]c3ccc4ncccc4c23)cc1`, the GI50 was 40.4 µM (inactive) with EKVX; 19.6 µM (inactive) in the assay on CAKI-1; 23.7 µM (inactive) in the assay with Malme-3M; 24.2 µM (inactive) in the assay on SF-295; 34.8 µM (inactive) in the assay on HT-29; 23.1 µM (inactive) in the assay on UACC-257. For the same molecule, the GI50 in the assay on LOX IMVI was 26.4 µM (inactive); in the assay on HL-60, 22.3 µM (inactive); in the assay on SK-MEL-2, 17.1 µM (inactive); in the assay with A498, 20.3 µM (inactive); in the assay with NCI-H226, 26.2 µM (inactive); in the assay on SN12C, 25.8 µM (inactive). The GI50 with A549 is 43.4 µM (inactive); in the assay with RPMI-8226 it was 11 µM (inactive); in the assay with T47D it was 20.6 µM (inactive); in the assay with BT-549, 30.3 µM (inactive); in the assay with MDA-MB-231, 27.4 µM (inactive); in the assay on NCI/ADR-RES, > 100 µM (inactive). The GI50 with MOLT-4 is 13.6 µM (inactive).
For the molecule `O=C1NC2c3c(I)sc(I)c3C(=O)C2O1` (stereo not given), the GI50 with EKVX was 5.52 µM (inactive); in the assay on CAKI-1, 3.52 µM (inactive); in the assay with Malme-3M, 2.23 µM (inactive); with SF-295, 15.8 µM (inactive); in the assay with HT-29, 1.7 µM (inactive); with UACC-257, 4.97 µM (inactive). Also, the GI50 in the assay with LOX IMVI was 2.16 µM (inactive); in the assay on HL-60, 1.09 µM (active); in the assay with SK-MEL-2, 10.4 µM (inactive); with A498 it was 14.3 µM (inactive); with NCI-H226, 5.55 µM (inactive); in the assay with SN12C, 4.27 µM (inactive). Further, the GI50 is 14.1 µM (inactive) in the assay on A549; 8.15 µM (inactive) in the assay with RPMI-8226; 15.9 µM (inactive) with T47D; 5.53 µM (inactive) in the assay with BT-549; 4.49 µM (inactive) in the assay with MDA-MB-231; 6.84 µM (inactive) with NCI/ADR-RES. Also, the GI50 with MOLT-4 is 3.58 µM (inactive).
